Assay results: ChEMBL document CHEMBL1201862, “PubChem BioAssay data set” (2004)
Active and inactive are the calls of the source.

Columns and labels:
[1] = target: Glycogen synthase kinase-3 beta (Homo sapiens, UniProt P49841); assay: inhibition of human GSK3B activity – biochemical, microfluidics, dry powder samples, set 2, dose response (AID 623989); assay type: functional
[2] = target: Glycogen synthase kinase-3 alpha (Homo sapiens, UniProt P49840); assay: GSK3A enzyme blockers, homolog specificity check – biochemical, microfluidics, dry powder samples, set 2, selectivity assay for GSK3beta inhibitor project, dose response (AID 623978); assay type: functional
[3] = general mammalian cell viability loss – inhibitor set, cherry-pick, set 2, cytotoxicity control for miR-122 modulator project, dose response (AID 720697); assay type: functional, cell-based
[4] = target: Cell division cycle 7-related protein kinase (Homo sapiens, UniProt O00311); assay type: functional;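 further: value obtained from a kinome-wide kinase panel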
Wee1-like protein kinase = Wee1-like protein kinase (Homo sapiens, UniProt P30291); assay: Navigating the Kinome. Panel member name: WEE1; assay type: functional
[5] = target: Melanin-concentrating hormone receptor 1 (Homo sapiens, UniProt Q99705); assay: Late-stage fluorescence-based counterscreen for antagonists of the G-protein coupled receptor 7 (GPR7): cell-based dose response assay to identify antagonists of the melanin-concentrating hormone receptor 1 (MCHR1) Set 6.; assay type: functional
[6] = target: T1, Neuropeptides B/W receptor type 1 (Homo sapiens, UniProt P48145); assay: human NPBW1 receptor blockade, IC50 – cell-based, fluorescence, dose response, set 6, late-stage follow-up (AID 588583); assay type: functional
T1 sequence (P48145 whole entry): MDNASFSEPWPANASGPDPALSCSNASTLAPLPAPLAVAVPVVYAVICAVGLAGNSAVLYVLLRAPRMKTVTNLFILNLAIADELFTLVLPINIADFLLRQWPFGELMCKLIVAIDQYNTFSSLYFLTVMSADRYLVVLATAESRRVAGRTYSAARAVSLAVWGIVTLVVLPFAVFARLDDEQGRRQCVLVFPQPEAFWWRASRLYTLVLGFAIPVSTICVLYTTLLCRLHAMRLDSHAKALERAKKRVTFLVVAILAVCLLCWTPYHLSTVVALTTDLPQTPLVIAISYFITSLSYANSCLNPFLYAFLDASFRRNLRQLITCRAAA

[7] = THP-1 cell cytotoxicity, cytotoxicity control, set 5 (AID 588443); assay type: functional
[8] = HepG2 cell cytotoxicity, cytotoxicity control, set 5 (AID 588441); assay type: functional; conditions: Mycobacterium tuberculosis
[9] = Vero cell viability loss – purified and synthesized compounds, set 6, cytotoxicity control for M. tuberculosis inhibitor project, dose response (AID 588445); assay type: functional; conditions: Mycobacterium tuberculosis
[10] = A High Throughput Confirmatory Assay used to Identify Novel Compounds that Inhibit Mycobacterium Tuberculosis in the absence of Glycerol using Purified and Synthesized Compounds (3).; assay type: functional
[11] = target: Ribosomal protein S6 kinase alpha-3 (Homo sapiens, UniProt P51812); assay type: functional;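 further: measured within a kinome-wide profiling panel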
[12] = target: Dual specificity protein kinase CLK2 (Homo sapiens, UniProt P49760); assay type: functional
[13] = target: Dual specificity mitogen-activated protein kinase kinase 1 (Homo sapiens, UniProt Q02750); assay: Navigating the Kinome. Panel member name: MAP2K1; assay type: functional
[14] = target: Tyrosine-protein kinase JAK2 (Homo sapiens, UniProt O60674); assay type: functional;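 further: JAK2 tested as one member of a kinase panel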
[15] = target: 5'-AMP-activated protein kinase catalytic subunit alpha-1 (Homo sapiens, UniProt Q13131); assay type: functional
[16] = target: ALK tyrosine kinase receptor (Homo sapiens, UniProt Q9UM73); assay type: functional;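 further: ALK tested as one member of a kinase panel screen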
[17] = target: Proto-oncogene tyrosine-protein kinase receptor Ret (Homo sapiens, UniProt P07949); assay type: functional;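 further: measured within a kinome-wide profiling panel, RET as the panel member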
[18] = target: Tyrosine-protein kinase receptor TYRO3 (Homo sapiens, UniProt Q06418); assay type: functional;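 further: TYRO3 value obtained as one member of a kinome-wide profiling panel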
Activin receptor type-1 = Activin receptor type-1 (Homo sapiens, UniProt Q04771); assay: Navigating the Kinome. Panel member name: ACVR1; assay type: functional
[19] = target: Serine/threonine-protein kinase pim-1 (Homo sapiens, UniProt P11309); assay type: functional
[20] = target: Mast/stem cell growth factor receptor Kit (Homo sapiens, UniProt P10721); assay type: functional;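 further: KIT entry within a kinase panel assay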
[21] = target: Fibroblast growth factor receptor 1 (Homo sapiens, UniProt P11362); assay type: functional
[22] = target: Casein kinase I isoform alpha (Homo sapiens, UniProt P48729); assay type: functional
[23] = target: Tyrosine-protein kinase JAK3 (Homo sapiens, UniProt P52333); assay type: functional
[24] = target: Serine/threonine-protein kinase TAO1 (Homo sapiens, UniProt Q7L7X3); assay type: functional
[25] = target: MAP/microtubule affinity-regulating kinase 3 (Homo sapiens, UniProt P27448); assay type: functional;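 further: MARK3 affinity measured as one member of a kinome panel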
Activated CDC42 kinase 1 = Activated CDC42 kinase 1 (Homo sapiens, UniProt Q07912); assay: Navigating the Kinome. Panel member name: ACK1; assay type: functional
[26] = target: Vascular endothelial growth factor receptor 2 (Homo sapiens, UniProt P35968); assay type: functional
[27] = target: G protein-coupled receptor kinase 5 (Homo sapiens, UniProt P34947); assay: Navigating the Kinome. Panel member name: GPRK5; assay type: functional
[28] = target: Dual specificity tyrosine-phosphorylation-regulated kinase 1B (Homo sapiens, UniProt Q9Y463); assay: Navigating the Kinome. Panel member name: DYRK1B; assay type: functional
[29] = target: cAMP-dependent protein kinase catalytic subunit PRKX (Homo sapiens, UniProt P51817); assay type: functional
[30] = target: Leucine-rich repeat serine/threonine-protein kinase 2 (Homo sapiens, UniProt Q5S007); assay type: functional;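 further: value from a broad kinome-wide panel profiling study in which LRRK2 was one of the kinases tested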
[31] = target: Rho-associated protein kinase 1 (Homo sapiens, UniProt Q13464); assay type: functional;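 further: measured within a broad kinome-wide panel profiling many kinases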
[32] = target: Cyclin-dependent kinase 8 (Homo sapiens, UniProt P49336); assay: Navigating the Kinome. Panel member name: CDK8; assay type: functional
[33] = target: Vascular endothelial growth factor receptor 1 (Homo sapiens, UniProt P17948); assay type: functional;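 further: measured within a kinome-wide profiling panel, FLT1 as the panel member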
[34] = target: Dual specificity protein kinase CLK4 (Homo sapiens, UniProt Q9HAZ1); assay type: functional
[35] = target: Mitogen-activated protein kinase kinase kinase kinase 4 (Homo sapiens, UniProt O95819); assay type: functional
[36] = target: Macrophage-stimulating protein receptor (Homo sapiens, UniProt Q04912); assay: Navigating the Kinome. Panel member name: MST1R; assay type: functional
[37] = target: Dual specificity tyrosine-phosphorylation-regulated kinase 1A (Homo sapiens, UniProt Q13627); assay type: functional;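 further: measured against DYRK1A as one member of a broad kinome profiling panel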
[38] = target: Inhibitor of nuclear factor kappa-B kinase subunit epsilon (Homo sapiens, UniProt Q14164); assay: Navigating the Kinome. Panel member name: IKBKE; assay type: functional
[39] = target: Mitogen-activated protein kinase 10 (Homo sapiens, UniProt P53779); assay: Navigating the Kinome. Panel member name: MAPK10; assay type: functional
[40] = target: Leukocyte tyrosine kinase receptor (Homo sapiens, UniProt P29376); assay: Navigating the Kinome. Panel member name: LTK; assay type: functional
[41] = target: Sphingosine 1-phosphate receptor 2 (Homo sapiens, UniProt O95136); assay: Late-stage fluorescence-based dose-response cell-based counterscreen assay to identify agonists of the Sphingosine 1-Phosphate Receptor 3 (S1P3): Sphingosine 1-Phosphate Receptor 2 (S1P2) agonist assay.; assay type: functional
[42] = target: T2, Sphingosine 1-phosphate receptor 4 (Homo sapiens, UniProt O95977); assay: Late-stage fluorescence-based dose-response cell-based counterscreen assay to identify agonists of the Sphingosine 1-Phosphate Receptor 3 (S1P3): Sphingosine 1-Phosphate Receptor 4 (S1P4) agonist assay.; assay type: functional
T2 sequence (O95977 whole entry): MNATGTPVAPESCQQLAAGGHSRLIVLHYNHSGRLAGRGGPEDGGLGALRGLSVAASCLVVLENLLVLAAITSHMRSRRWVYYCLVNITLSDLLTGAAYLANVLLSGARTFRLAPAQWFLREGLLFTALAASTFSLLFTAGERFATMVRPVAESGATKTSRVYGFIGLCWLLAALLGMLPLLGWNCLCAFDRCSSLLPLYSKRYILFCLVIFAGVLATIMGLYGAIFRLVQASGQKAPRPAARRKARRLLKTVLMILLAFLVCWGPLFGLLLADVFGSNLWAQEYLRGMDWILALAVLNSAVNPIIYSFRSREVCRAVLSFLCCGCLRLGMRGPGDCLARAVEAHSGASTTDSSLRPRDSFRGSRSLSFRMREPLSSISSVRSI

[43] = target: Cyclin-dependent kinase 19 (Homo sapiens, UniProt Q9BWU1); assay: Navigating the Kinome. Panel member name: CDC2L6; assay type: functional
SRSF protein kinase 1 = SRSF protein kinase 1 (Homo sapiens, UniProt Q96SB4); assay type: functional;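 further: measured as one member of a kinome-wide kinase profiling panel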
[44] = target: MAP kinase-activated protein kinase 5 (Homo sapiens, UniProt Q8IW41); assay type: functional;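 further: measured as one member of a kinome panel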
[45] = target: Protein-tyrosine kinase 2-beta (Homo sapiens, UniProt Q14289); assay type: functional
[46] = target: Tyrosine-protein kinase receptor UFO (Homo sapiens, UniProt P30530); assay type: functional
[47] = target: Serine/threonine-protein kinase pim-3 (Homo sapiens, UniProt Q86V86); assay type: functional;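 further: value obtained as one member of a broad kinase panel profiling effort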
Aurora kinase B = Aurora kinase B (Homo sapiens, UniProt Q96GD4); assay type: functional
Aurora kinase A = Aurora kinase A (Homo sapiens, UniProt O14965); assay type: functional;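 further: value from the Navigating the Kinome kinase panel profiling, panel entry STK6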
[48] = target: DNA dC->dU-editing enzyme APOBEC-3A (Homo sapiens, UniProt P31941); assay: SAR analysis of small molecule inhibitors of APOBEC3A DNA Deaminase via a fluorescence-based single-stranded DNA deaminase assay - Set 2.; assay type: functional; conditions: read-out: IC50_Mean
[49] = target: DNA dC->dU-editing enzyme APOBEC-3G (Homo sapiens, UniProt Q9HC16); assay: SAR analysis of small molecule inhibitors of APOBEC3G DNA Deaminase via a fluorescence-based single-stranded DNA deaminase assay - Set 2.; assay type: functional; conditions: read-out: IC50_Mean

Serine/threonine-protein kinase pim-1, sequence (P11309 whole entry): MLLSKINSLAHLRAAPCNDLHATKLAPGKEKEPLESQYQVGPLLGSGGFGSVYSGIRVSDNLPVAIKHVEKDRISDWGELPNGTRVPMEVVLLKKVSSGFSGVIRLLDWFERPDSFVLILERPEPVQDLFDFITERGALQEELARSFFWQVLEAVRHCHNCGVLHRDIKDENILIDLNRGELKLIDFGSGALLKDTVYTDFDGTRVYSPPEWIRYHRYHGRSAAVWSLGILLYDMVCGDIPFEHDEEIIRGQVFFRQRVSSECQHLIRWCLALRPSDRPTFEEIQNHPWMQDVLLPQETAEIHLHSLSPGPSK
Dual specificity protein kinase CLK4, sequence (Q9HAZ1 whole entry): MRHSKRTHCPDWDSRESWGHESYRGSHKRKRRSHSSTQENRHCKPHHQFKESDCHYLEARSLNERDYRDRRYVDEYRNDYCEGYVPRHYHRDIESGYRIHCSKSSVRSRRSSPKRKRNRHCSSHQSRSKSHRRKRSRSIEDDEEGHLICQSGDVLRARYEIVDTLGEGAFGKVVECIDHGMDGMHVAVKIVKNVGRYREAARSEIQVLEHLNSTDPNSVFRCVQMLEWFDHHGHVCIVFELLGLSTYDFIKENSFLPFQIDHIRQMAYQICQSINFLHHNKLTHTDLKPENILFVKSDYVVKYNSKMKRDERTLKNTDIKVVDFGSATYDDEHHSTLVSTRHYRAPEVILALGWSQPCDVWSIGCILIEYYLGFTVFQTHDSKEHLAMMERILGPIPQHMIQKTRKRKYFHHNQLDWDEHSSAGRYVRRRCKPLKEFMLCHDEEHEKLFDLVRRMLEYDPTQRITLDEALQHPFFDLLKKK
Aurora kinase B, sequence (Q96GD4 whole entry): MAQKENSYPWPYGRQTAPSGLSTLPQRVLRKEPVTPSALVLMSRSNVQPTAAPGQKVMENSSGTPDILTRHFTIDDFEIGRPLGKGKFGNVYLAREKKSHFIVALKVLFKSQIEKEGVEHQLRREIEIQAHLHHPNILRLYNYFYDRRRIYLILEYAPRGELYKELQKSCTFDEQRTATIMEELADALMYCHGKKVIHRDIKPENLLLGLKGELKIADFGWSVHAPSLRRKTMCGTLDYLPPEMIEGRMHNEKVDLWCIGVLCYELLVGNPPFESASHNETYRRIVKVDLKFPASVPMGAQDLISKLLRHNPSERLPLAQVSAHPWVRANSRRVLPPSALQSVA
Vascular endothelial growth factor receptor 2, sequence (P35968 whole entry): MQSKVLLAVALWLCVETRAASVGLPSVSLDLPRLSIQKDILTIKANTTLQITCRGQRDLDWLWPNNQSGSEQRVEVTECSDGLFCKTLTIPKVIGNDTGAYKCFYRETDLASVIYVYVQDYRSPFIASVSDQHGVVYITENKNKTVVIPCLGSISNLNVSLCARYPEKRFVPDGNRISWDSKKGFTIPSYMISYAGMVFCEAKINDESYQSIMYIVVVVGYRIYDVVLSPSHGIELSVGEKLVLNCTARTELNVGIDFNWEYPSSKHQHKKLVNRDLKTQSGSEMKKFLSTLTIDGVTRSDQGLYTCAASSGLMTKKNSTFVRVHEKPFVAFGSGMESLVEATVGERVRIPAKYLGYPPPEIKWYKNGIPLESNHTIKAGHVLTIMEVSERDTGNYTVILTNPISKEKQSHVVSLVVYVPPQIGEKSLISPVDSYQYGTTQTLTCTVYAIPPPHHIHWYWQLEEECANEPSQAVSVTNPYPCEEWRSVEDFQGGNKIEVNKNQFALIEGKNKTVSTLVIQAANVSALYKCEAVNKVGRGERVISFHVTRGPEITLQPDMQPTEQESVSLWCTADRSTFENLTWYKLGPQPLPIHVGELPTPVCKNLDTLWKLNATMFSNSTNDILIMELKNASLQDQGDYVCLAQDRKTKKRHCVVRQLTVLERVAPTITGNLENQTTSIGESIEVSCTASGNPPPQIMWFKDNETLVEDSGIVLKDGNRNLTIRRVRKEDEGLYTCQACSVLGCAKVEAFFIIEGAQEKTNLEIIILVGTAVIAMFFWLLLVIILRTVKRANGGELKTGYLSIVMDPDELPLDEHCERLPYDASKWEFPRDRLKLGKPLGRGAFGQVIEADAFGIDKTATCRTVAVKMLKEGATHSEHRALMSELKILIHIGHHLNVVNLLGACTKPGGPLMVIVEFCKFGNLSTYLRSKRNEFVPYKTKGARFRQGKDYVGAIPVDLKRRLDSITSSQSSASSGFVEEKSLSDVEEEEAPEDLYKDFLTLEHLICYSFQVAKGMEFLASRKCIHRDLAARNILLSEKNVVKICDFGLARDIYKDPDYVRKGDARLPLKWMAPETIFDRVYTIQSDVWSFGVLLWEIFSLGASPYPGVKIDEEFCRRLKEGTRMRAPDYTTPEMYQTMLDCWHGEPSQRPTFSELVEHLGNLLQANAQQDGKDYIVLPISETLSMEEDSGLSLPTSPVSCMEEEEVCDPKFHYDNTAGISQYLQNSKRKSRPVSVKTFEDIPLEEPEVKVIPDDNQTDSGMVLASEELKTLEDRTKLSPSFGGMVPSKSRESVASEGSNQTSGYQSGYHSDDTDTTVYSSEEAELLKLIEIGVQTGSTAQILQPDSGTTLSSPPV
Cell division cycle 7-related protein kinase, sequence (O00311 whole entry): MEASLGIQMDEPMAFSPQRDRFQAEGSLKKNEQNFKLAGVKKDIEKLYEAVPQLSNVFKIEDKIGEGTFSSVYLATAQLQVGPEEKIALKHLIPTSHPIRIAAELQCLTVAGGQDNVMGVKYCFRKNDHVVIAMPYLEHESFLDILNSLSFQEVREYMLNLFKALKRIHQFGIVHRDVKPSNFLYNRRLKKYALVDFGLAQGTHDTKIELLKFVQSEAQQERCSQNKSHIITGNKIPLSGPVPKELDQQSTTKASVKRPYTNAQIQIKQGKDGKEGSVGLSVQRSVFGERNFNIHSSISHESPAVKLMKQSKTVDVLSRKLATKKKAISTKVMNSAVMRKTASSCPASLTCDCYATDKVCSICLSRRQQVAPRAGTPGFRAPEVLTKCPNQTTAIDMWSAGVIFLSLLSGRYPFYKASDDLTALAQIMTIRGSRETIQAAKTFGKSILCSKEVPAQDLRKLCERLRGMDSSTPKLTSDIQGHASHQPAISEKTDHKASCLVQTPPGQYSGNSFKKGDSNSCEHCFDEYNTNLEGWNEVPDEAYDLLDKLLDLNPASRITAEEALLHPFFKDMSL
Inhibitor of nuclear factor kappa-B kinase subunit epsilon, sequence (Q14164 whole entry): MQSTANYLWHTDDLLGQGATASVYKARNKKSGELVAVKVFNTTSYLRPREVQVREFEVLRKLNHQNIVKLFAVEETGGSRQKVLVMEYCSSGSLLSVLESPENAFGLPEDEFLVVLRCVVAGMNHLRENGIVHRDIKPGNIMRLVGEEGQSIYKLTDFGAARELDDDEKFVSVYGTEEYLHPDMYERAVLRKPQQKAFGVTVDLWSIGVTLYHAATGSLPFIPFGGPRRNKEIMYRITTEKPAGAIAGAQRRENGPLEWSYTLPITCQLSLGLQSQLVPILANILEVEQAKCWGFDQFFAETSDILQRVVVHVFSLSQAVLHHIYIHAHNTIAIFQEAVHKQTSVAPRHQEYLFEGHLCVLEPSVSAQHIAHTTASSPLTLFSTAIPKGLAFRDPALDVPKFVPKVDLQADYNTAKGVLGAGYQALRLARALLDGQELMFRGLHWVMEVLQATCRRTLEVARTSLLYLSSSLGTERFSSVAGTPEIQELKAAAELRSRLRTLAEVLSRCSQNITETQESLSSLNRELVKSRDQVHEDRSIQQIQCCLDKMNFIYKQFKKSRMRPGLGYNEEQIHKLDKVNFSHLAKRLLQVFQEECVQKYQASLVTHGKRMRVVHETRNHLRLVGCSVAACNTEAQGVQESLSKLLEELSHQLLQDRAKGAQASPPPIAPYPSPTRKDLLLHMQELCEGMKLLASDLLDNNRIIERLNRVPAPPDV
5'-AMP-activated protein kinase catalytic subunit alpha-1, sequence (Q13131 whole entry): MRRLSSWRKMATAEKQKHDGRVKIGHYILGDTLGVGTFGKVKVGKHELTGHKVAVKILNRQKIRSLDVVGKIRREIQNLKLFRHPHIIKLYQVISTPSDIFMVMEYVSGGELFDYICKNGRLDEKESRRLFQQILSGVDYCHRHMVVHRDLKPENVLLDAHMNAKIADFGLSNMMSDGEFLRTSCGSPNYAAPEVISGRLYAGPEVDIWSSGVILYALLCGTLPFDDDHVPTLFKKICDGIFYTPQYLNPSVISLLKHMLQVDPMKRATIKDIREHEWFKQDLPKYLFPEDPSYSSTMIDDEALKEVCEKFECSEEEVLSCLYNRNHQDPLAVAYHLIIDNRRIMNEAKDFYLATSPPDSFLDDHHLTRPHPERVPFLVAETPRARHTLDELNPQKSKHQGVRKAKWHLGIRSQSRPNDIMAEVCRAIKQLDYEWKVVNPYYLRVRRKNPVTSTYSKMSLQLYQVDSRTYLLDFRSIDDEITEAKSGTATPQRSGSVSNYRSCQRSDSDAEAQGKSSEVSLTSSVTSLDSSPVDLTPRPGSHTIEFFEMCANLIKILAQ
Melanin-concentrating hormone receptor 1, sequence (Q99705 whole entry): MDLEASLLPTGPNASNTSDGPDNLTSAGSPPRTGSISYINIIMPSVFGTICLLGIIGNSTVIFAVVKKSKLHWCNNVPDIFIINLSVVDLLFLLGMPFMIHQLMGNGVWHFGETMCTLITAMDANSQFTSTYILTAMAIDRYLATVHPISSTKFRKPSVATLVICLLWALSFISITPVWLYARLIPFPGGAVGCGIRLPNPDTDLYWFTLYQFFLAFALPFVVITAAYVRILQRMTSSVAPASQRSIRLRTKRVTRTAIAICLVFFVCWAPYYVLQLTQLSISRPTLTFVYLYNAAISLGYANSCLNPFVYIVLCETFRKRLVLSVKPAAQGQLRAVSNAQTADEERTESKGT
DNA dC->dU-editing enzyme APOBEC-3A, sequence (P31941 whole entry): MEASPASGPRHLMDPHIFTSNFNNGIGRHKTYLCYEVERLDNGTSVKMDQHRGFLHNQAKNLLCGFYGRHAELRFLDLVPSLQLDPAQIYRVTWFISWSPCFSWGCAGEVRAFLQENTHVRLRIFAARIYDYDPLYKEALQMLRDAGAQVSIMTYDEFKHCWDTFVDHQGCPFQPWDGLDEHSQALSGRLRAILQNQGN

Clc1ccc(CSc2nnc(-c3ccncc3)o2)c(Cl)c1
AC50 [1]: 1.83 µM (active) | AC50 [2]: 24 µM (active) | AC50 [3]: 8.31 µM (active)

c1cc(NC2CCCCC2)nc(Nc2ccc3[nH]ncc3c2)n1
Ki [4]: 0.2 µM (active) | Ki (Wee1-like protein kinase): > 3.16 µM (inactive)

N#CC(c1ccc2c(c1)OCO2)c1c(Cl)cnn(Cc2cccc3ccccc23)c1=O (stereo unspecified)
IC50 [5]: 0.41 µM (active) | IC50 [6]: 0.41 µM (active)

Cc1cccc(N2CCN(C(=O)c3ccc(CNc4c(N5CCC(C)CC5)c(=O)c4=O)cc3)CC2)c1C
CC50 [7]: 8.21 µM (active) | CC50 [8]: > 15 µM (active) | CC50 [9]: > 30 µM (active) | IC50 [10]: > 25 µM (active)

O=C(Nc1cccc(C(F)(F)F)n1)Nc1ccnc2ccc(F)cc12
Ki [11]: > 3.98 µM (inactive) | Ki [12]: 3.16 µM (active) | Ki [13]: > 3.16 µM (inactive) | Ki [14]: > 2.51 µM (inactive) | Ki [15]: > 3.16 µM (inactive) | Ki [16]: > 6.31 µM (inactive) | Ki [17]: > 3.16 µM (inactive) | Ki [18]: > 3.16 µM (inactive) | Ki (Activin receptor type-1): 1.58 µM (active) | Ki [19]: > 6.31 µM (inactive) | Ki [20]: > 6.31 µM (inactive) | Ki [21]: > 3.98 µM (inactive) | Ki [22]: > 3.98 µM (inactive) | Ki [23]: > 5.01 µM (inactive) | Ki [24]: > 2.51 µM (inactive) | Ki [25]: > 5.01 µM (inactive) | Ki (Activated CDC42 kinase 1): > 3.98 µM (inactive) | Ki [26]: > 2.51 µM (inactive) | Ki [27]: > 3.98 µM (inactive) | Ki [28]: 2 µM (active) | Ki [29]: > 3.16 µM (inactive) | Ki [30]: > 2.51 µM (inactive) | Ki [31]: > 3.98 µM (inactive) | Ki [32]: 0.0794 µM (active) | Ki [33]: > 3.98 µM (inactive) | Ki [34]: 0.1 µM (active) | Ki [35]: > 5.01 µM (inactive) | Ki [36]: > 3.98 µM (inactive) | Ki [37]: > 2 µM (inactive) | Ki [38]: > 3.16 µM (inactive) | Ki [39]: > 3.16 µM (inactive) | Ki [40]: > 3.16 µM (inactive)

CC(C)Cc1cc(C(=O)N(C2CCCCC2)C2CCCCC2)no1
EC50 [41]: > 50 µM (inactive) | EC50 [42]: > 50 µM (inactive)

Oc1cncc2nc(-c3ccncc3)ccc12
Ki [4]: 0.501 µM (active) | Ki [43]: > 100 µM (inactive)

O=C1CC(c2ccc(Cl)cc2)Cc2[nH]c3cc(Cl)ccc3c(=O)c21 (stereo unspecified)
Ki (SRSF protein kinase 1): 6.31 µM (active) | Ki [19]: 5.01 µM (active) | Ki [44]: 1.26 µM (active) | Ki [45]: 1.58 µM (active) | Ki [34]: 6.31 µM (active) | Ki [46]: 1.58 µM (active)

N=C(N)Cc1cccc(-c2nc3ccccc3[nH]2)c1
Ki [19]: 5.01 µM (active) | Ki [47]: 3.98 µM (active) | Ki (Aurora kinase B): 2.51 µM (active)

O=C(CCCCCCC(=NO)c1ncco1)Nc1cccc(-c2ccccc2)c1
Ki (Aurora kinase A): > 2 µM (inactive) | Ki [26]: > 5.01 µM (inactive) | Ki (Aurora kinase B): 0.0251 µM (active)

CCCn1c(=O)c2ccccc2n2c(SC)nnc12
IC50 [48]: > 99 µM (inactive) | IC50 [49]: > 99 µM (inactive)
